Assay results reported in PubChem BioAssay AID196 (DTP/NCI, 2004).
Several values for one entry are separate records, joined by “and”; a condition that tells them apart may be missing. Identical values can stand only once. Toxic doses and inconclusive results are not listed. How the source made its calls: active means survival T/C of 150% or more; inactive means T/C below 125% in these data.

System: BDF1 mice, intracerebral B16 melanoma, median survival T/C
Experiment: NCI In Vivo Anticancer Drug Screen. Data for tumor model B16 Melanoma (intracerebral) in B6D2F1 (BDF1) mice
Conditions: endpoint: median survival time, higher = longer survival
Description: The antitumor activity of compounds was measured in mice bearing transplantable tumors. Survival or tumor size were measured and the results are expressed as the measurement made in the treated group (T) divided by the measurement made in the vehicle treated control group (C). The tumor model used in this assay is B16 Melanoma (intracerebral) in B6D2F1 (BDF1) mice

[1] = dose: 0.5 mg/kg/injection, schedule: Q01DX009 (ip), vehicle: saline
[2] = dose: 1.0 mg/kg/injection, schedule: Q01DX009 (ip), vehicle: saline
[3] = dose: 2.0 mg/kg/injection, schedule: Q01DX009 (ip), vehicle: saline
[4] = dose: 26.7 mg/kg/injection, schedule: Q01DX001 (ip), vehicle: Klucel (hydroxypropylcellulose) (HPC)
[5] = dose: 40.0 mg/kg/injection, schedule: Q01DX001 (ip), vehicle: Klucel (hydroxypropylcellulose) (HPC)
[6] = dose: 60.0 mg/kg/injection, schedule: Q01DX001 (ip), vehicle: Klucel (hydroxypropylcellulose) (HPC)

Measured: T/C

Cc1ncc(CNC(=O)N(CCCl)N=O)c(N)n1
active: dose: 12.5 mg/kg/injection, schedule: Q01DX009 (ip), vehicle: Klucel (hydroxypropylcellulose) (HPC) 179 % of control
inactive: dose: 25.0 mg/kg/injection, schedule: Q01DX009 (ip), vehicle: Klucel (hydroxypropylcellulose) (HPC) 105 % of control

N[C@@H](Cc1ccc(N(CCCl)CCCl)cc1)C(=O)O
inactive: [1] 95 % of control | dose: 0.5 mg/kg/injection, schedule: Q01DX009 (ip), vehicle: water 100 % of control | [2] 100 % of control | dose: 1.0 mg/kg/injection, schedule: Q01DX009 (ip), vehicle: water 104 % of control | [3] 120 % of control | dose: 2.0 mg/kg/injection, schedule: Q01DX009 (ip), vehicle: water 116 % of control | dose: 4.0 mg/kg/injection, schedule: Q01DX009 (ip), vehicle: saline 87 % of control

O=CC(NC(=O)N(CCF)N=O)C(O)C(O)C(O)CO (stereo not drawn)
inactive: [4] 107 % of control | [5] 109 % of control | [6] 118 % of control

CN(N=O)C(=O)N[C@@H](C=O)[C@@H](O)[C@H](O)[C@H](O)CO
inactive: dose: 0.12 mg/kg/injection, schedule: Q01DX009 (ip), vehicle: citric acid 101 % of control | dose: 0.25 mg/kg/injection, schedule: Q01DX009 (ip), vehicle: citric acid 94 % of control | dose: 0.5 mg/kg/injection, schedule: Q01DX009 (ip), vehicle: citric acid 104 % of control | dose: 1.0 mg/kg/injection, schedule: Q01DX009 (ip), vehicle: citric acid 102 % of control | dose: 2.0 mg/kg/injection, schedule: Q01DX009 (ip), vehicle: citric acid 102 % of control | dose: 5.0 mg/kg/injection, schedule: Q01DX009 (ip), vehicle: citric acid 102 % of control | dose: 10.0 mg/kg/injection, schedule: Q01DX009 (ip), vehicle: citric acid 108 % of control | dose: 0.12 micrograms/kg/injection, schedule: Q01DX009 (ip), vehicle: citric acid 94 % of control

Cc1ncc(CO)c(C)c1O
inactive: dose: 128.0 mg/kg/injection, schedule: Q01DX005 (ip), vehicle: Klucel (hydroxypropylcellulose) (HPC) 100 % of control and 109 % of control | dose: 256.0 mg/kg/injection, schedule: Q01DX005 (ip), vehicle: Klucel (hydroxypropylcellulose) (HPC) 98 % of control and 105 % of control

O=C1c2c(O)ccc(O)c2C(=O)c2c(NCCNCCO)ccc(NCCNCCO)c21
inactive: [1] 90 % of control | [2] 96 % of control | [3] 102 % of control

CN=NNc1nc[nH]c1C(N)=O
inactive: dose: 16.0 mg/kg/injection, schedule: Q01DX005 (ip), vehicle: saline 106 % of control | dose: 32.0 mg/kg/injection, schedule: Q01DX005 (ip), vehicle: saline 95 % of control | dose: 64.0 mg/kg/injection, schedule: Q01DX005 (ip), vehicle: saline 102 % of control | dose: 128.0 mg/kg/injection, schedule: Q01DX005 (ip), vehicle: saline 107 % of control

O=NN(CCF)C(=O)NC1CCC(=O)NC1=O (stereo not drawn)
active: [6] 157 % of control
inactive: [4] 115 % of control | [5] 111 % of control

CCN(CC)c1ccc2cc3ccc(=[N+](CC)CC)cc-3oc2c1
inactive: dose: 4.0 mg/kg/injection, schedule: Q01DX005 (ip), vehicle: saline 100 % of control | dose: 4.0 mg/kg/injection, schedule: Q01DX005 (ip), vehicle: suspension in saline 93 % of control | dose: 8.0 mg/kg/injection, schedule: Q01DX005 (ip), vehicle: saline 98 % of control | dose: 8.0 mg/kg/injection, schedule: Q01DX005 (ip), vehicle: suspension in saline 113 % of control

CN=S(=O)(OCCCCCOS(=O)(=NC)c1ccccc1)c1ccccc1 (stereo not drawn)
inactive: dose: 6.25 mg/kg/injection, schedule: Q01DX009 (ip), vehicle: saline with Tween-80 109 % of control | dose: 12.5 mg/kg/injection, schedule: Q01DX009 (ip), vehicle: saline with Tween-80 91 % of control | dose: 25.0 mg/kg/injection, schedule: Q01DX009 (ip), vehicle: saline with Tween-80 100 % of control

N=[N+]=CC(=O)CCC(NC(=O)C(CCC(=O)C=[N+]=N)NC(=O)CCC(N)C(=O)O)C(=O)O (stereo not drawn)
inactive: dose: 0.05 mg/kg/injection, schedule: Q01DX005 (ip), vehicle: Klucel (hydroxypropylcellulose) (HPC) 124 % of control and 108 % of control | dose: 0.1 mg/kg/injection, schedule: Q01DX005 (ip), vehicle: Klucel (hydroxypropylcellulose) (HPC) 97 % of control and 108 % of control | dose: 0.2 mg/kg/injection, schedule: Q01DX005 (ip), vehicle: Klucel (hydroxypropylcellulose) (HPC) 120 % of control and 111 % of control | dose: 0.4 mg/kg/injection, schedule: Q01DX005 (ip), vehicle: Klucel (hydroxypropylcellulose) (HPC) 112 % of control
